Drawing on US3933805A, “S(IV)-benzo-1,2,4-thiadiazine compounds and process for their preparation” (Biersdorf, Akteingesellschaft, priority 1973, dated 1976), this text covers ED50 and IC50 for 20 compounds.

One test relates to spontaneous mobility. The experiment in a line: Decrease of spontaneous mobility. In kind it is in vivo. The following applies: Mus musculus, po; mice. From the text:
(§1) Central depressing effects in mice (ED50 in mg/kg p.o.)
(§2) Example spontaneous Increase in net^(3)
(1) Method described in R.A. Turner, Screening Methods in Pharmacology, […]

Test [1] has as its system Minimum Electroshock Threshold. The experiment in a line: Minimum Electroshock Threshold (increase in net). In kind it is in vivo. The following applies: Mus musculus, po; mice.
Excerpt: as §1, §2
(3) Minimum Electroshock Threshold, test arrangement according to Brown,
Schiffmann, Swinyard and Goodman; J.Pharmacol. Exptl. Ther. 107, 273

A further test deals with pentobarbital sleep. The test can be described thus: Prolongation of pentobarbital sleep. In kind it is in vivo. The following applies: Mus musculus, po, mice, p.o., read-out: ED50, increase in sleeping (prolongation of pentobarbital sleep).
Excerpt: as §1, §2
(2) Prolongation of pentobarbital sleep, R.A. Turner, Screening Methods i
Pharmacology, N.Y. 1965, p. 90.

For test [2], the system named is guinea pig small intestine. The experiment in a line: Spasmolytic effect on guinea pig small intestine in vitro against Acetylcholine. In kind it is cell-based. The conditions noted are these: Cavia porcellus, Acetylcholine 0.1 γ/ml, read-out: ED50, spasmolytic effect against Acetylcholine. From the text:
(§3) Spasmolytic effect on guinea pig small intestine (1)
(§4) (1) R. Magnus, Pflugers Arch. ges. Physiol. 102, 123 (1904)

Test [3] relates to guinea pig small intestine. The test can be described thus: Spasmolytic effect on guinea pig small intestine in vitro against Barium chloride. The conditions noted are these: Cavia porcellus, Barium chloride 200 γ/ml, read-out: ED50, spasmolytic effect against Barium chloride. In kind it is cell-based.
Excerpt: as §3, §4

For test [4], the system named is guinea pig small intestine. The test can be described thus: Spasmolytic effect on guinea pig small intestine in vitro against Histamine. In kind it is cell-based. The conditions noted are these: Cavia porcellus, Histamine 0.1 γ/ml, read-out: ED50, spasmolytic effect against Histamine.
Excerpt: as §3, §4

In brackets after ≈: the same amount, converted by molar mass. A value given as a limit tells only on which side of the number the result lay.

As usually defined, the ED50 is the midpoint of the dose-response relation. On to `CCCN(CCC)CC1=Nc2ccc(Cl)cc2S(=O)(c2ccccc2)=N1` (stereo not drawn) [Example 1, 7-Chloro-3-di-(n-propyl)aminomethyl-1-phenyl-benzo-1,2,4-thiadiazine-1 oxide], for which the results for the ED50 (in the test on spontaneous mobility; in test [1]; in the test on pentobarbital sleep) were 98 mg/kg, 38 mg/kg and 22 mg/kg, respectively.
Consider `CCCN(CCC)CC1=Nc2ccccc2S(=O)(c2ccc(N)cc2)=N1` (stereo not drawn) [Example 2, 3-Di-(n-propyl)-aminomethyl-1-(4'-aminophenyl)-benzo-1,2,4-thiadiazine-1-oxide], for which the ED50 with spontaneous mobility is over 250 mg/kg; in the test with pentobarbital sleep it was 8 mg/kg.
In the case of `O=S1(c2ccccc2)=NC(CN2CCCCC2)=Nc2ccc(Cl)cc21` (stereo not drawn) [Example 3], the ED50 in the test on spontaneous mobility amounted to 84 mg/kg; in test [1], 34 mg/kg; in the test with pentobarbital sleep, 34 mg/kg. Moreover, the IC50 came out at 0.9 µg/mL (≈ 2.41 µM) in test [2] and 1.7 µg/mL (≈ 4.55 µM) in test [3].
`CCN(CC)CC1=Nc2ccc(Cl)cc2S(=O)(c2ccccc2)=N1` (stereo not drawn) [Example 4]: the results for the ED50 (in the test with spontaneous mobility; in test [1]; in the test with pentobarbital sleep) were 78 mg/kg, 28 mg/kg and 46 mg/kg, respectively.
`O=S1(c2ccccc2)=NC(CN2CCOCC2)=Nc2ccc(Cl)cc21` (stereo not drawn) [Example 5]: the results for the ED50 (with spontaneous mobility; in test [1]; with pentobarbital sleep) were over 250 mg/kg, 92 mg/kg and 46 mg/kg, respectively.
Take `O=S1(c2ccccc2)=NC(CN2CCCC2)=Nc2ccc(Cl)cc21` (stereo not drawn) [Example 6]: the ED50 was 70 mg/kg in the test on spontaneous mobility, 68 mg/kg in test [1] and 38 mg/kg with pentobarbital sleep.
Take `O=S1(c2ccccc2)=NC(CNCCO)=Nc2ccc(Cl)cc21` (stereo not drawn) [Example 7]: the figures for the median effective dose (ED50) (in the test on spontaneous mobility; in test [1]; in the test on pentobarbital sleep) were 23 mg/kg, 126 mg/kg and 15 mg/kg, respectively.
Taken in the same sequence, the figures for `CN(C)CC1=Nc2ccc(Cl)cc2S(=O)(c2ccccc2)=N1` (stereo not drawn) [Example 8] were 96 mg/kg, 46 mg/kg and 16 mg/kg.
Take `COCCNCC1=Nc2ccc(Cl)cc2S(=O)(c2ccccc2)=N1` (stereo not drawn) [Example 9]: the figures for the ED50 (with spontaneous mobility; in test [1]; in the test with pentobarbital sleep) were over 250 mg/kg, 32 mg/kg and 58 mg/kg, respectively.
Taken in the same sequence, the figures for `CCNCC1=Nc2ccc(Cl)cc2S(=O)(c2ccccc2)=N1` (stereo not drawn) [Example 13] were 240 mg/kg, 42 mg/kg and 25 mg/kg.
Regarding `COCCN(C)CC1=Nc2ccc(Cl)cc2S(=O)(c2ccccc2)=N1` (stereo not drawn) [Example 14], the ED50 with spontaneous mobility is over 250 mg/kg; in test [1], 46 mg/kg; in the test on pentobarbital sleep, 28 mg/kg.
For the compound `CCCN(CCC)CC1=Nc2cc(C)ccc2S(=O)(c2ccccc2)=N1` (stereo not drawn) [Example 15], the ED50 in the test with spontaneous mobility is 76 mg/kg; in test [1], over 500 mg/kg; in the test on pentobarbital sleep, 8.5 mg/kg. Also, the IC50 in test [2] turned out to be 2.7 µg/mL (≈ 7.31 µM); in test [4] it was 0.96 µg/mL (≈ 2.6 µM); in test [3], 2.2 µg/mL (≈ 5.95 µM).
Consider `CCCN(CCC)CC1=Nc2ccccc2S(=O)(c2ccccc2)=N1` (stereo not drawn) [Example 18], for which the ED50 in the test on spontaneous mobility is 186 mg/kg; in test [1] it was 134 mg/kg; in the test with pentobarbital sleep, 3.1 mg/kg. The IC50 in test [2] is 4 µg/mL (≈ 11.3 µM); in test [3] it was 1.2 µg/mL (≈ 3.38 µM).
In the case of `O=S1(c2ccccc2)=NC(CNCCO)=Nc2ccccc21` (stereo not drawn) [Example 19], the ED50 is over 250 mg/kg in the test on spontaneous mobility, over 500 mg/kg in test [1] and 2 mg/kg in the test with pentobarbital sleep.
With `CCCN(CCC)CC1=Nc2ccccc2S(=O)(c2ccc(Cl)cc2)=N1` (stereo not drawn) [Example 20], the ED50 in the test with spontaneous mobility was 31 mg/kg; in test [1], over 250 mg/kg; in the test with pentobarbital sleep, 2 mg/kg. Also, the IC50 in test [2] was determined as 2.6 µg/mL (≈ 6.67 µM).
As to `O=S1(c2ccc(Cl)cc2)=NC(CNCCO)=Nc2ccccc21` (stereo not drawn) [Example 21], the ED50 in the test with spontaneous mobility worked out at 46 mg/kg; in the test with pentobarbital sleep, 9 mg/kg.
For the compound `CCCN(CCC)CC1=Nc2ccc(Cl)cc2S(=O)(c2ccc(Cl)cc2)=N1` (stereo not drawn) [Example 22], the ED50 came out at 28 mg/kg with spontaneous mobility and 16 mg/kg with pentobarbital sleep. For the same compound, the IC50 in test [2] was 2.2 µg/mL (≈ 5.18 µM); in test [3], 0.72 µg/mL (≈ 1.7 µM).
For the compound `CCCN(CCC)CC1=Nc2ccc(Cl)cc2S(=O)(c2cccc(C)c2)=N1` (stereo not drawn) [Example 23], the results for the IC50 in test [2], in test [4] and in test [3] were 1.1 µg/mL (≈ 2.72 µM), 0.08 µg/mL (≈ 0.198 µM) and 0.9 µg/mL (≈ 2.23 µM), respectively.
For `CCCN(CCC)CC1=Nc2cccc(Cl)c2S(=O)(c2ccc(Cl)cc2)=N1` (stereo not drawn) [Example 24], the results for the ED50 (with spontaneous mobility; in test [1]; with pentobarbital sleep) were 16 mg/kg, 115 mg/kg and 20 mg/kg, respectively. For the same compound, the IC50 in test [2] was 2.2 µg/mL (≈ 5.18 µM); in test [4], 0.04 µg/mL (≈ 0.0943 µM); in test [3], 0.72 µg/mL (≈ 1.7 µM).
Take `CCCN(CCC)CC1=Nc2ccc(C)cc2S(=O)(c2ccc(Cl)cc2)=N1` (stereo not drawn) [Example 25]: the values for the ED50 (in the test with spontaneous mobility; in test [1]; with pentobarbital sleep) were 31 mg/kg, 21 mg/kg and over 250 mg/kg, respectively. Besides, the IC50 in test [2] and in test [3] was 0.69 µg/mL (≈ 1.71 µM) throughout.
